Laboratory results published in patent publication US7205305B2, “Inhibitors of p38” (Vertex Pharmaceuticals Incorporated, priority 1996, dated 2007).
Read-outs that look alike come from different tables or passages of the source.

What was measured:
[1] = test system: IL-1 production in LPS-stimulated PBMCs; assay: Inhibition of IL-1 production in LPS-stimulated PBMCs ("cell"); format: cell-based, human
Experimental: (§1) Inhibitors were serially diluted in DMSO from a 20 mM stock. At least 6 serial dilutions were prepared. Then 4× inhibitor stocks were prepared by adding 4 μl of an inhibitor dilution to 1 ml of RPMI1640 medium/10% fetal bovine serum. The 4× inhibitor stocks contained inhibitor at concentrations of 80 μM, 32 μM, 12.8 μM, 5.12 μM, 2.048 μM, 0.819 μM, 0.328 μM, 0.131 μM, 0.052 μM, 0.021 μM etc. The 4× inhibitor stocks were pre-warmed at 37° C. until use.
(§2) Fresh human blood buffy cells were separated from other cells in a Vacutainer CPT from Becton & Dickinson (containing 4 ml blood and enough DPBS without Mg^2+/Ca^2+ to fill the tube) by centrifugation at 1500×g for 15 min. Peripheral blood mononuclear cells (PBMCs), located on top of the gradient in the Vacutainer, were removed and washed twice with RPMI1640 medium/10% fetal bovine serum. PBMCs were collected by centrifugation at 500×g for 10 min. The total cell number was determined using a Neubauer Cell Chamber and the cells were adjusted to a concentration of 4.8×10^6 cells/ml in cell culture medium (RPMI1640 supplemented with 10% fetal bovine serum).
(§3) We placed 100 μl of cell suspension or whole blood in each well of a 96-well cell culture plate. Then we added 50 μl of the 4× inhibitor stock to the cells. Finally, we added 50 μl of a lipopolysaccharide (LPS) working stock solution (16 ng/ml in cell culture medium) to give a final concentration of 4 ng/ml LPS in the assay. The total assay volume of the vehicle control was also adjusted to 200 μl by adding 50 μl cell culture medium. The PBMC cells or whole blood were then incubated overnight (for 12–15 hours) at 37° C./5% CO2 in a humidified atmosphere.
(§4) The next day the cells were mixed on a shaker for 3–5 minutes before centrifugation at 500×g for 5 minutes. Cell culture supernatants were harvested and analyzed by ELISA for levels of IL-1b (R & D Systems, Quantikine kits, #DBL50), TNF-α (BioSource, #KHC3012), IL-6 (Endogen, #EH2-IL6) and IL-8 (Endogen, #EH2-IL8) according to the instructions of the manufacturer. The ELISA data were used to generate dose-response curves from which IC50 values were derived.

[2] = test system: IL-1 production in whole blood; assay: Inhibition of IL-1 production in LPS-stimulated whole blood ("WB"); format: cell-based, human
Experimental: as §1
(§5) Alternatively, whole blood containing an anti-coagulant was used directly in the assay.
as §3, §4

activated p38 = activated p38 (Homo sapiens, UniProt Q16539); assay: Inhibition of phosphorylation of EGF receptor peptide ("kinase"); format: biochemical; details: inhibition of phosphorylation of EGF receptor peptide by activated p38
In short: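 Activated p38 was preincubated with inhibitor for 15 min at room temperature in 100 mM HEPES pH 7.6, 10 mM MgCl2, 25 mM β-glycerophosphate, 10% glycerol, 5% DMSO final. Reaction used 200 μM EGF receptor peptide and 100 μM ATP for 30 min at 30° C. TFA-quenched phosphopeptide was quantified by reverse-phase HPLC.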

[3] = test system: TNF production in whole blood; assay: Inhibition of TNF production in LPS-stimulated whole blood ("WB"); format: cell-based, human
Experimental: as §1, §5, §3, §4

[4] = test system: IL-6 production in whole blood; assay: Inhibition of IL-6 production in LPS-stimulated whole blood ("WB"); format: cell-based, human
Experimental: as §1, §5, §3, §4

[5] = test system: TNF production in LPS-stimulated PBMCs; assay: Inhibition of TNF production in LPS-stimulated PBMCs ("cell"); format: cell-based, human
Experimental: as §1, §2, §3, §4

Sequence of activated p38 (Q16539 whole entry): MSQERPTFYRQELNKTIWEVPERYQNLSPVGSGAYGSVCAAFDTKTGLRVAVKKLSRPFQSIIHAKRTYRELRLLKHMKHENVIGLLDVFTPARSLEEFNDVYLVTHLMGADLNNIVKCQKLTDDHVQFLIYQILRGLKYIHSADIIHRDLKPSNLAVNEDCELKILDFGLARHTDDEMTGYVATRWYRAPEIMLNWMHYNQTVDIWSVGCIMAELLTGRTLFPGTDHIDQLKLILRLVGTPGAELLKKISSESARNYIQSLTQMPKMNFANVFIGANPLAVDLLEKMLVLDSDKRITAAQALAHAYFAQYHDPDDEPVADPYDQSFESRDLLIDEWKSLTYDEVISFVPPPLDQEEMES

Compound | IC50 [1] | IC50 [2] | IC50 (activated p38) | IC50 [3] | IC50 [4] | IC50 [5] | IC50 ([1]; Homo sapiens, PBMC) | IC50 ([2]; Homo sapiens) | IC50 ([3]; Homo sapiens) | IC50 ([4]; Homo sapiens) | IC50 ([5]; Homo sapiens, PBMC)
O=C1NCN2N=C(Sc3ccc(F)cc3Cl)C=CC2=C1c1cc2c(cc1Cl)OCO2 [Compound 145] | ≤ 100 nM | ≤ 250 nM | ≤ 100 nM | ≤ 250 nM | ≤ 250 nM | ≤ 100 nM |  |  |  |  | 
Cc1ccc(Sc2ccc3c(-c4c(Cl)cccc4Cl)c(=O)ncn3n2)c(C)c1 [Compound 32] |  |  | 100 to 1000 nM |  |  |  | ≥ 500 nM | ≥ 500 nM | ≥ 500 nM | ≥ 500 nM | 100 to 500 nM
COC(=O)c1ccccc1Sc1ccc2c(-c3c(Cl)cccc3Cl)c(=O)ncn2n1 [Compound 26] |  |  | ≥ 1000 nM |  |  |  | ≤ 100 nM | ≥ 500 nM | ≥ 500 nM | ≥ 500 nM | 100 to 500 nM
COC(=O)c1ccccc1SC1=NN2CNC(=O)C(c3c(Cl)cccc3Cl)=C2C=C1 [Compound 101] |  |  | 100 to 1000 nM |  |  |  | ≤ 100 nM | ≥ 500 nM | ≥ 500 nM | 250 to 500 nM | ≤ 100 nM
O=C1NCN2N=C(Sc3ccc(F)cc3Cl)C=CC2=C1c1cc2c(cc1Cl)OCO2 [Compound 136] |  |  | ≤ 100 nM |  |  |  | ≤ 100 nM | ≥ 500 nM | ≥ 500 nM | 250 to 500 nM | ≤ 100 nM
Cc1cc(F)ccc1-c1cccc(N(C(N)=O)c2c(F)cccc2F)n1 [Compound 410] |  |  | ≤ 100 nM |  |  |  | ≤ 100 nM | 250 to 500 nM | 250 to 500 nM | 250 to 500 nM | ≤ 100 nM
Cc1cc(F)ccc1-c1cccc(C(C(N)=O)c2c(Cl)cccc2Cl)n1 (stereo not drawn) [Compound 363] |  |  | ≤ 100 nM |  |  |  | ≤ 100 nM | ≥ 500 nM | ≥ 500 nM | ≥ 500 nM | 100 to 500 nM
NC(=O)N(c1cccc(-c2ccc(F)cc2)n1)c1c(F)cccc1F [Compound 404] |  |  | ≤ 100 nM |  |  |  | ≤ 100 nM | ≥ 500 nM | ≥ 500 nM | ≥ 500 nM | ≤ 100 nM
NC(=O)C(c1cccc(-c2ccc(F)cc2)n1)c1c(Cl)cccc1Cl (stereo not drawn) [Compound 309] |  |  | 100 to 1000 nM |  |  |  | 100 to 500 nM | ≥ 500 nM | ≥ 500 nM | ≥ 500 nM | 100 to 500 nM
NC(=O)C(c1cccc(-c2ccc(Cl)cc2Cl)n1)c1c(Cl)cccc1Cl (stereo not drawn) [Compound 325] |  |  | ≤ 100 nM |  |  |  | ≤ 100 nM | ≥ 500 nM | ≥ 500 nM | ≥ 500 nM | 100 to 500 nM
NC(=O)C(c1cccc(-c2ccc(Cl)cc2Cl)n1)c1c(F)cccc1Cl (stereo not drawn) [Compound 346] |  |  | 100 to 1000 nM |  |  |  | ≥ 500 nM | ≥ 500 nM | ≥ 500 nM | ≥ 500 nM | ≥ 500 nM
N#Cc1ccccc1SC1=NN2CNC(=O)C(c3c(Cl)cccc3Cl)=C2C=C1 [Compound 116] |  |  | ≤ 100 nM |  |  |  | ≤ 100 nM | ≥ 500 nM | ≥ 500 nM | ≥ 500 nM | 100 to 500 nM
Nc1ccc(Cl)c(-c2c(=O)ncn3nc(Sc4ccc(Br)cc4)ccc23)c1Cl [Compound 37] |  |  | 100 to 1000 nM |  |  |  | 100 to 500 nM | ≥ 500 nM | ≥ 500 nM | ≥ 500 nM | ≥ 500 nM
Nc1ccc(F)cc1SC1=NN2CNC(=O)C(c3c(Cl)cccc3Cl)=C2C=C1 [Compound 122] |  |  | 100 to 1000 nM |  |  |  | 100 to 500 nM | ≥ 500 nM | ≥ 500 nM | ≥ 500 nM | ≥ 500 nM
O=C1NCN2N=C(Sc3ccc(F)cc3)C=CC2=C1c1c(Cl)cccc1Cl [Compound 103] |  |  | ≤ 100 nM |  |  |  | ≤ 100 nM | ≥ 500 nM | 250 to 500 nM | 250 to 500 nM | ≤ 100 nM
Nc1ccccc1SC1=NN2CNC(=O)C(c3c(Cl)cccc3Cl)=C2C=C1 [Compound 115] |  |  | ≤ 100 nM |  |  |  | ≤ 100 nM | ≥ 500 nM | ≥ 500 nM | ≥ 500 nM | ≤ 100 nM
